The subject of data set [1] is severe bilateral leg lymphedema. Description: Observation of leg lymphedema in a Hodgkin lymphoma patient in a phase II clinical trial. It counts as in vivo, human. Particulars: one Hodgkin lymphoma patient, 800 mg/die, lymphedema from post-radiotherapy compressive lymphatic obstruction. The source says: In this patient, lymphedema was due a compressive lymphatic obstruction related to post-radiotherapy sequelae.

Data set [2] has as its system tail lymphedema in C57BL/6 mice. Description: Mouse tail model of lymphedema. It counts as in vivo. The conditions noted are these: 60 mg/kg/die days 5 to 9 and 12 to 16. The procedure: Six- to eight-wk-old female C57BL/6 mice with body weight of 20 to 25 g, were purchased from Charles River (Milano, Italy, EU). Mice were housed under standard laboratory conditions according to the Applicant's institutional guidelines. Animal experiments were performed according to the Italian laws (Law Decree 116/92 and following additions), which enforce the EU […] Directive, and were approved by the institutional Ethical Committee for Animal Experimentation.
To create lymphedema, a circumferential incision was made through the dermis close to the tail base to sever the dermal lymphatic vessels. The edges of this incision were then pushed apart, thereby severing the deeper draining lymphatics, preventing superficial bleeding, and creating a 2-3 mm gap to delay wound closure.
Sorafenib dosing used in mice experiments is roughly equivalent to a 300 mg daily dosing in humans.
Mice were than randomly assigned to receive two cycles of sorafenib (60 mg/kg/die) from days 5 to 9 and 12 to 16 or control vehicle.

Data set [3] relates to vascular permeability in mouse tail. Description: Miles vascular permeability assay (Evans blue) in mice with surgically induced tail lymphedema. It counts as in vivo. Here is the method: A Miles vascular permeability assay using intrasplenic injection of the blue dye Evans blue was perfomed in untreated and sorafenib-treated mice bearing a surgical-induced tail lymphedema.
Six- to eight-wk-old female C57BL/6 mice with body weight of 20 to 25 g, were used in this experiment. Tail lymphedema was generated by a circumferential incision through the dermis close to the tail base, as described above. […] On day 16, mice received the last dose of sorafenib and 2 hrs later were injected through the spleen with 0.1 ml of 1% Evan's blue in PBS. After 2 h, the mice were exsanguinated under anesthesia, and were perfused with heparin in PBS until lungs and livers were blanched. The distal portion of the tail was then removed and placed in formamide at 37° C. overnight to extract Evan's blue dye. […]

In data set [4] the test system is acquired arm lymphedema. Kind of data set: Pilot clinical study in breast cancer patients with acquired arm lymphedema. Particulars: oral 200 mg daily, up to 8 weeks, ten patients. The data set is classed as in vivo, human. An excerpt: To further evaluate in a clinical setting the anti-lymphedema activity of multi-kinase inhibitor sorafenib, the Applicants performed a pilot study on a compassionate need basis to evaluate the toxicity and the anti-lymphedema effects of multi-kinase inhibitor sorafenib in consenting breast cancer patients with acquired arm lymphedema occurring following surgical dissection of, and/or radiotherapy on axillary lymphnodes. No other treatment options of proven efficacy was available for these patients.
Patients were administered with oral sorafenib at a dose of 200 mg daily.
Therapy was given for a maximum of 8 weeks or until lymphedema progression or appearance of clinical significant toxicity probably related to multi-kinase inhibitor sorafenib.
Within a two-month period of time ten breast cancer patients with acquired lymphedema of the arm were treated with multi-kinase inhibitor sorafenib.
At the end of treatment, the efficacy of multi-kinase inhibitor sorafenib was evaluated as percentage reduction of total arm circumference as compared with pre-treatment values. The median reduction of total arm circumference was 60% (range, 30 to 100). Lymphedema reduction was associated with a 5-10% reduction of body weight.

On to `CNC(=O)c1cc(Oc2ccc(NC(=O)Nc3ccc(Cl)c(C(F)(F)F)c3)cc2)ccn1` [sorafenib, Sorafenib], for which the “regression of severe bilateral leg lymphedema” value in data set [1] is given as “complete regression”. In addition, in data set [2] (day 7 after incision, control peak 63±3 mm on day 15), the “mean (±SEM) tail diameter at lymphedema peak” value is reported as 58±4 mm. Moreover, the “resolution of tail lymphedema” value in data set [2] (day 20) was “complete resolution of lymphedema”. Also, the “mean (±SEM) tail diameter on day 20” value in data set [2] (day 20 after incision, control 58±3, P≦0.0003, baseline 36±1) was 36±1 mm. In addition, the “mean (±SEM) OD620 of Evans blue extracted from the tail” value in data set [3] (60 mg/kg, 384 h) was 0.09±0.009. The “reduction of vascular permeability vs untreated mice (extravasated Evans blue)” value in data set [3] (day 16, 60 mg/kg/die days 5 to 9 and 12 to 16) is 2 fold. In addition, the “median reduction of total arm circumference vs pre-treatment” value in data set [4] (end of treatment) is listed as 60%. For the same compound, the “reduction of body weight associated with lymphedema reduction” value in data set [4] is listed as 5-10%. For the same compound, the tolerability result in data set [4] (no dose reduction or discontinuation due to toxicity) is “well tolerated”.

Source of the values: patent US20120101261A1, “USE OF MULTI-KINASE INHIBITORS IN THE TREATMENT OF VASCULAR HYPERPERMEABILITY” (Fondazione IRCCS Istituto Nazionale Dei Tumori, priority 2009, published 2012).
